Laboratory results reported in PubChem BioAssay AID652164 (Sanford-Burnham Center for Chemical Genomics, 2013).
The source made the active and inactive calls.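 How the source made its calls: active means IC50 at or below 20 µM; inactive means the rest.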

What follows are compounds tested against Fatty acid synthase (Homo sapiens) (UniProt P49327) (assay: FAS thioesterase domain inhibitors, SAR follow-up, biochemical, endpoint fluorescence intensity, powder samples (AID 652164)). Details: recombinant FAS-TE, OMFH substrate fluorescence.
Sequence of Fatty acid synthase (Homo sapiens) (P49327 whole entry, looked up, the tested form may be a part): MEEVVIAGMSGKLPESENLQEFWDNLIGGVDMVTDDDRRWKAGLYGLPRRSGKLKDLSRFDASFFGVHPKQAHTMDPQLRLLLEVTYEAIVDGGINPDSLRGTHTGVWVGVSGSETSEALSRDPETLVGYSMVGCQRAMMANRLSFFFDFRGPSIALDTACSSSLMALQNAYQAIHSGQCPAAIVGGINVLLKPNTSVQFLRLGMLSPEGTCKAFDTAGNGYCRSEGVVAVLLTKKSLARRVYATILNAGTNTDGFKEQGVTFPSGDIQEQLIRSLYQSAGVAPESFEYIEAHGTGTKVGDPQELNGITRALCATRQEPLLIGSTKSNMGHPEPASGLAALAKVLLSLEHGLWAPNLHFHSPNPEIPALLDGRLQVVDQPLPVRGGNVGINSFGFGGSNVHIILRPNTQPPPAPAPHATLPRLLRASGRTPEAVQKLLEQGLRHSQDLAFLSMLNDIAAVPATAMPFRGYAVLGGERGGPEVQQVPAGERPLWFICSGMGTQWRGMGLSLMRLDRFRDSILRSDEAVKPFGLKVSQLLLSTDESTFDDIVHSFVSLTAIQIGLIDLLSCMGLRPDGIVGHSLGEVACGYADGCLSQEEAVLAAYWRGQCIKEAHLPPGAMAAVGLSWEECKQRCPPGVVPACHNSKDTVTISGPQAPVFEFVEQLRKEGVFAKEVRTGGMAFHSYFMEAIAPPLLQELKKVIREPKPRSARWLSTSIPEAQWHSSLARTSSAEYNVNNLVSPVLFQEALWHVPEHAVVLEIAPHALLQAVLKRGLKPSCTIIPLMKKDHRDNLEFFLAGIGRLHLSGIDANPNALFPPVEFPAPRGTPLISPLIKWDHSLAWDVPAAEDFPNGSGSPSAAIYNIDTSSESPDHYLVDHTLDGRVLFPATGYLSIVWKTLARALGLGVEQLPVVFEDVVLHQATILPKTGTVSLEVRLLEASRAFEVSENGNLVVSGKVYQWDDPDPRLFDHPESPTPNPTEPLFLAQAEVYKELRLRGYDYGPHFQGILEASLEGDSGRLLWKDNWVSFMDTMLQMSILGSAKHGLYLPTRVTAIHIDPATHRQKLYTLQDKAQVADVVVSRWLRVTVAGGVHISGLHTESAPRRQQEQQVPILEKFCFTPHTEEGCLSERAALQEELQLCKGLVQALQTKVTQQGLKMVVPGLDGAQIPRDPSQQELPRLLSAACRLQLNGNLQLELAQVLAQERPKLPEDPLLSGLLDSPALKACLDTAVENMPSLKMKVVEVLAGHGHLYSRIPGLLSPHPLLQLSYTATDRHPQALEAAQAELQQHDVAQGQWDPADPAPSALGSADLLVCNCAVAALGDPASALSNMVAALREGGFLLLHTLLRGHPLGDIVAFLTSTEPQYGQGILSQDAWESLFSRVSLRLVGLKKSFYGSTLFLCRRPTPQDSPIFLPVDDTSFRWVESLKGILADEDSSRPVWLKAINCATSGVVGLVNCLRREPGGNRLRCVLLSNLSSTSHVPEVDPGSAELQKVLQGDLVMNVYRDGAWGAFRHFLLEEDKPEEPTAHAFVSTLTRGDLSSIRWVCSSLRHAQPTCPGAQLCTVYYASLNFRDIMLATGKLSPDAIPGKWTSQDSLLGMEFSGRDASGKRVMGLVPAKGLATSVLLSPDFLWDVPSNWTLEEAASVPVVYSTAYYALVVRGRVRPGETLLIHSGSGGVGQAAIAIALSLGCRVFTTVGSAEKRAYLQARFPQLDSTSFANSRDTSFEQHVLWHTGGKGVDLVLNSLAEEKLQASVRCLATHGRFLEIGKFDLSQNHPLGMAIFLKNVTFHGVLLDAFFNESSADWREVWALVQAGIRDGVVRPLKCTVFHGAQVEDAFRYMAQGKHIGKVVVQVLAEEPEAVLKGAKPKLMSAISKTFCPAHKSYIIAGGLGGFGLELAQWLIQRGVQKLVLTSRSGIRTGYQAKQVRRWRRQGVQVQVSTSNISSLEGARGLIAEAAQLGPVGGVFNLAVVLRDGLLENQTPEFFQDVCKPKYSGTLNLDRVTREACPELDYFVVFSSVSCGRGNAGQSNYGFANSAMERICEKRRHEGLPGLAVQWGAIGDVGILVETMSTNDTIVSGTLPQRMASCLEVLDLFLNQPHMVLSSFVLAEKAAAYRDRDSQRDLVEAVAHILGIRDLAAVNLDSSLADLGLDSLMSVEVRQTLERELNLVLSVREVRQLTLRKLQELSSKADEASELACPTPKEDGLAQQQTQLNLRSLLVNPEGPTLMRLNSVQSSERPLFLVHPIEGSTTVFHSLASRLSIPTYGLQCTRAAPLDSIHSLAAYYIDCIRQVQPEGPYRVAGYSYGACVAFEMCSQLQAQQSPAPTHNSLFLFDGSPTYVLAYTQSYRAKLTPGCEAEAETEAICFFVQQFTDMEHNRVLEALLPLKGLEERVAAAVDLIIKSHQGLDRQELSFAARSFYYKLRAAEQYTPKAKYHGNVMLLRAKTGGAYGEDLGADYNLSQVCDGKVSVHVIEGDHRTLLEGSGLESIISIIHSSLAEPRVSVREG

Row | IC50 | SMILES
1 | 0.648 µM | CCC(=O)Nc1nc(-c2ccc(S(=O)(=O)N3CCCC3)cc2)cs1
2 | 0.558 µM | O=C(Nc1nc(-c2ccc(S(=O)(=O)N3CCCC3)cc2)cs1)C1CC1
3 | 0.398 µM | O=C(Nc1nc(-c2ccc(S(=O)(=O)N3CCCC3)cc2)cs1)C1CCC1
4 | 3.59 µM | O=C(Nc1nc(-c2ccc(S(=O)(=O)N3CCOCC3)cc2)cs1)C1CCC1
5 | 0.201 µM | CCCCC(=O)Nc1nc(-c2ccc(S(=O)(=O)N3CCCC3)cc2)cs1
6 | 5.21 µM | O=C(Nc1nc(-c2ccc(S(=O)(=O)N3CCOCC3)cc2)cs1)C1CC1
7 | 0.277 µM | CC(C)C(=O)Nc1nc(-c2ccc(S(=O)(=O)N3CCCC3)cc2)cs1
8 | 0.729 µM | O=C(Nc1nc(-c2ccc(S(=O)(=O)N3CCCC3)cc2)cs1)C1CCCC1

More lines, now with the values behind:

Row | SMILES | IC50
9 | CCC(C)C(=O)Nc1nc(-c2ccc(S(=O)(=O)N(CC)CC)cc2)cs1 (centres undefined) | 0.3 µM
10 | CCCCC(=O)Nc1nc(-c2ccc(S(=O)(=O)N(CC)CC)cc2)cs1 | 0.172 µM
11 | CCN(CC)S(=O)(=O)c1ccc(-c2csc(NC(=O)C(C)C)n2)cc1 | 0.281 µM
12 | CCN(CC)S(=O)(=O)c1ccc(-c2csc(NC(=O)C3CCCCC3)n2)cc1 | 2.93 µM
13 | CCC(=O)Nc1nc(-c2ccc(S(=O)(=O)N3CCOCC3)cc2)cs1 | 4.52 µM
14 | CC(C)C(=O)Nc1nc(-c2ccc(S(=O)(=O)N(C)C)cc2)cs1 | 0.575 µM
15 | CC(C)CC(=O)Nc1nc(-c2ccc(S(=O)(=O)N3CCOCC3)cc2)cs1 | 11.6 µM
16 | CC1CCN(S(=O)(=O)c2ccc(-c3csc(NC(=O)C(C)C)n3)cc2)CC1 | 0.658 µM
17 | CCCCC(=O)Nc1nc(-c2ccc(S(=O)(=O)N3CCC(C)CC3)cc2)cs1 | 0.501 µM
18 | CCCCC(=O)Nc1nc(-c2ccc(S(=O)(=O)N3CCOCC3)cc2)cs1 | 0.552 µM
19 | CCN(CC)S(=O)(=O)c1ccc(-c2csc(NC(=O)C3CC3)n2)cc1 | 2.32 µM
20 | CCC(CC)C(=O)Nc1nc(-c2ccc(S(=O)(=O)N3CCOCC3)cc2)cs1 | 0.334 µM
21 | CCCCC(=O)Nc1nc(-c2ccc(S(=O)(=O)N3CCSCC3)cc2)cs1 | 0.713 µM
22 | CC(C)(C)OC(=O)Nc1nc(-c2ccc(S(=O)(=O)N3CCOCC3)cc2)cs1 | inactive
23 | CCC(C)C(=O)Nc1nc(-c2ccc(S(=O)(=O)N3CCOCC3)cc2)cs1 (centres undefined) | 0.311 µM
24 | CCC(=O)Nc1nc(-c2ccc(S(=O)(=O)N(CC)CC)cc2)cs1 | 4.25 µM
